Measurements published in ChEMBL document CHEMBL4000165, “Chemosensitizing effect of Paris Saponin I on Camptothecin and 10-hydroxycamptothecin in lung cancer cells via p38 MAPK, ERK, and Akt signaling pathways” (Eur J Med Chem, 2017).
pIC50: −log10 of the molar value. The source made the active and inactive calls. The calls are words filed in the database; no cut-off is given here.

How the values were obtained:
NCI-H1299 [1] = assay: Cytotoxicity against human NCI-H1299 cells assessed as reduction in cell viability after 48 hrs by MTT assay; format: functional, cell-based; settings: NCI-H1299, 48 h
NCI-H520 = assay: Cytotoxicity against human NCI-H520 cells assessed as reduction in cell viability after 48 hrs by MTT assay; format: functional, cell-based; settings: NCI-H520, 48 h
NCI-H1299 [2] = assay: Cytotoxicity against human NCI-H1299 cells assessed as reduction in cell viability at 0.3 to 0.6 uM after 48 hrs in presence of HCPT by MTT assay; format: functional, cell-based
NCI-H460 [3] = assay: Cytotoxicity against human NCI-H460 cells assessed as reduction in cell viability at 0.3 to 0.6 uM after 48 hrs in presence of HCPT by MTT assay; format: functional, cell-based
NCI-H446 [4] = assay: Cytotoxicity against human NCI-H446 cells assessed as reduction in cell viability at 0.3 to 0.6 uM after 48 hrs in presence of HCPT by MTT assay; format: functional, cell-based
NCI-H1299 [5] = assay: Induction of apoptosis in human NCI-H1299 cells at 0.3 uM up to 20 mins in presence of CPT by acridine orange/ ethidium bromide staining based fluorescence microscopic method relative to control; format: functional
NCI-H1299 [6] = assay: Induction of apoptosis in human NCI-H1299 cells at 0.3 uM up to 20 mins in presence of HCPT by acridine orange/ ethidium bromide staining based fluorescence microscopic method relative to control; format: functional
NCI-H460 [7] = assay: Induction of apoptosis in human NCI-H460 cells at 0.6 uM up to 20 mins in presence of CPT by acridine orange/ ethidium bromide staining based fluorescence microscopic method relative to control; format: functional
NCI-H460 [8] = assay: Induction of apoptosis in human NCI-H460 cells at 0.6 uM up to 20 mins in presence of HCPT by acridine orange/ ethidium bromide staining based fluorescence microscopic method relative to control; format: functional
NCI-H446 [9] = assay: Induction of apoptosis in human NCI-H446 cells at 0.6 uM up to 20 mins in presence of CPT by acridine orange/ ethidium bromide staining based fluorescence microscopic method relative to control; format: functional
NCI-H1299 [10] = assay: Induction of apoptosis in human NCI-H1299 cells at 0.3 uM after 24 to 48 hrs by Annexin-V FITC/propidium iodide staining based flow cytometry; format: functional, cell-based
NCI-H446 [11] = assay: Induction of apoptosis in human NCI-H446 cells at 0.6 uM after 24 to 48 hrs by Annexin-V FITC/propidium iodide staining based flow cytometry; format: functional, cell-based
NCI-H1299 [12] = assay: Induction of apoptosis in human NCI-H1299 cells assessed as increase in total apoptotic cells at 0.3 uM after 48 hrs in presence of CPT by Annexin-V FITC/propidium iodide staining based flow cytometry; format: functional, cell-based
NCI-H446 [13] = assay: Induction of apoptosis in human NCI-H446 cells at 0.6 uM in presence of CPT by Annexin-V FITC/propidium iodide staining based flow cytometry; format: functional, cell-based; settings: TDE = time-dependent effect
NCI-H460 [14] = assay: Induction of apoptosis in human NCI-H460 cells assessed as activation of caspase-3/7 at 0.6 uM after 48 hrs by luciferase reporter gene assay; format: functional, cell-based
NCI-H446 [15] = assay: Induction of apoptosis in human NCI-H446 cells assessed as activation of caspase-3/7 at 0.6 uM after 48 hrs in presence of HCPT by luciferase reporter gene assay; format: functional, cell-based
NCI-H1299 [16] = assay: Induction of apoptosis in human NCI-H1299 cells assessed as increase in caspase-9 expression at 0.3 uM in presence of CPT by Western blot method; format: functional, cell-based
NCI-H1299 [17] = assay: Induction of apoptosis in human NCI-H1299 cells assessed as increase in caspase-9 expression at 0.3 uM in presence of HCPT by Western blot method; format: functional, cell-based
NCI-H446 [18] = assay: Induction of apoptosis in human NCI-H446 cells assessed as increase in caspase-9 expression at 0.6 uM in presence of HCPT by Western blot method; format: functional, cell-based
NCI-H446 [19] = assay: Induction of apoptosis in human NCI-H446 cells assessed as increase in cytochrome-C expression at 0.6 uM in presence of CPT by Western blot method; format: functional, cell-based
NCI-H446 [20] = assay: Induction of apoptosis in human NCI-H446 cells assessed as downregulation of Bcl2 expression at 0.6 uM in presence of CPT by Western blot method; format: functional, cell-based
NCI-H446 [21] = assay: Induction of apoptosis in human NCI-H446 cells assessed as downregulation of Bcl-XL expression at 0.6 uM in presence of CPT by Western blot method; format: functional, cell-based
[22] = biological target: T1, MAP kinase p38 (Homo sapiens) (UniProt O15264+Q15759+Q16539+P53778); assay: Increase in p38 MAPK phosphorylation in human NCI-H1299 cells at 0.3 uM in presence of CPT by Western blot method; format: cell-based
[23] = biological target: T1, MAP kinase p38 (Homo sapiens); assay: Increase in p38 MAPK phosphorylation in human NCI-H1299 cells at 0.3 uM in presence of HCPT by Western blot method; format: cell-based
NCI-H1299 [24] = assay: Effect on ERK1/2 protein expression in human NCI-H1299 cells at 0.3 uM in presence of HCPT by Western blot method; format: functional, cell-based
Homo sapiens [25] = organism: Homo sapiens; assay: Decrease in Akt phosphorylation in human NCI-H460 cells at 0.6 uM in presence of CPT by Western blot method; format: cell-based
Homo sapiens [26] = organism: Homo sapiens; assay: Decrease in Akt phosphorylation in human NCI-H460 cells at 0.6 uM in presence of HCPT by Western blot method; format: cell-based
[27] = biological target: T2, Mitogen-activated protein kinase; ERK1/ERK2 (Homo sapiens) (UniProt P27361+P28482); assay: Decrease in ERK1/2 phosphorylation in human NCI-H460 cells at 0.6 uM in presence of CPT by Western blot method; format: cell-based
T2 sequence (P27361 whole entry, looked up): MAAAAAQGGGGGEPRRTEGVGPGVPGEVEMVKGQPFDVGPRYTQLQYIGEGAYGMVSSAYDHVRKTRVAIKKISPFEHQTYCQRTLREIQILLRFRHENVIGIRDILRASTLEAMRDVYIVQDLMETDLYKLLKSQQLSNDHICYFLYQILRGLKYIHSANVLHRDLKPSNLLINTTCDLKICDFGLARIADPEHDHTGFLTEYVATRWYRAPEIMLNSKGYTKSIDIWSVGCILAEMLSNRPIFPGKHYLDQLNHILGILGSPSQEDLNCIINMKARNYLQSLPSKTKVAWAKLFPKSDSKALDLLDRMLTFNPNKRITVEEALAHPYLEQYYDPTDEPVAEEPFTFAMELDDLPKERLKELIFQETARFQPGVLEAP
T2 sequence (P28482 whole entry, looked up): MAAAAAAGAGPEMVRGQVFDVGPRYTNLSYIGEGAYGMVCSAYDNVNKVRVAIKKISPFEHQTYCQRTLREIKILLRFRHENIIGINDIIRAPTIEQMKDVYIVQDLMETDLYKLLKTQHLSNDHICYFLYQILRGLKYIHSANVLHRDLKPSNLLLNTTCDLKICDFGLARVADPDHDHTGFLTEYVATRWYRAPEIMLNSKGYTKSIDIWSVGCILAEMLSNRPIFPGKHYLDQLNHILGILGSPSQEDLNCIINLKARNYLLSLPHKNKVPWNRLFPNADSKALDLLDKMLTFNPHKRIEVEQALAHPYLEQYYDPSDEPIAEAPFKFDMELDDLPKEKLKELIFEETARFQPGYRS

[28] = biological target: T2, Mitogen-activated protein kinase; ERK1/ERK2 (Homo sapiens); assay: Decrease in ERK1/2 phosphorylation in human NCI-H460 cells at 0.6 uM in presence of HCPT by Western blot method; format: cell-based
[29] = biological target: T1, MAP kinase p38 (Homo sapiens); assay: Increase in p38 MAPK phosphorylation in human NCI-H460 cells at 0.6 uM in presence of CPT by Western blot method; format: cell-based
[30] = biological target: c-Jun N-terminal kinase, JNK (Homo sapiens) (UniProt P45983+P53779+P45984); assay: Increase in JNK phosphorylation in human NCI-H460 cells at 0.6 uM in presence of HCPT by Western blot method; format: cell-based
Homo sapiens [31] = organism: Homo sapiens; assay: Effect on Akt phosphorylation in human NCI-H446 cells at 0.6 uM in presence of HCPT by Western blot method; format: cell-based
NCI-H446 [32] = assay: Effect on ERK1/2 protein expression in human NCI-H446 cells at 0.6 uM in presence of HCPT by Western blot method; format: functional, cell-based
NCI-H446 [33] = assay: Effect on Akt protein expression in human NCI-H446 cells at 0.6 uM in presence of HCPT by Western blot method; format: functional, cell-based
NCI-H446 [34] = assay: Effect on p38 MAPK protein expression in human NCI-H446 cells at 0.6 uM in presence of HCPT by Western blot method; format: functional, cell-based
[35] = biological target: T1, MAP kinase p38 (Homo sapiens); assay: Effect on p38 MAPK phosphorylation in human NCI-H446 cells at 0.6 uM in presence of CPT by Western blot method; format: cell-based

Compound: C[C@@H]1CC[C@@]2(OC1)O[C@H]1C[C@H]3[C@@H]4CC=C5C[C@@H](O[C@@H]6O[C@H](CO)[C@@H](O[C@@H]7O[C@@H](CO)[C@H](O)[C@H]7O)[C@H](O)[C@H]6O[C@@H]6O[C@@H](C)[C@H](O)[C@@H](O)[C@H]6O)CC[C@]5(C)[C@H]4CC[C@]3(C)[C@H]1[C@@H]2C
- pIC50 (NCI-H1299 [1]): > 6.00
- pIC50 (NCI-H520): > 6.00
- Activity (NCI-H1299 [2]): Active
- Activity (NCI-H460 [3]): Active
- Activity (NCI-H446 [4]): Active
- fold change (FC) (NCI-H1299 [5]): 2
- fold change (FC) (NCI-H1299 [6]): 2
- fold change (FC) (NCI-H460 [7]): 2
- fold change (FC) (NCI-H460 [8]): 2
- fold change (FC) (NCI-H446 [9]): 2
- Activity (NCI-H1299 [10]): Active
- Activity (NCI-H446 [11]): Active
- Activity (NCI-H1299 [12]): Active
- Activity (NCI-H446 [13]): Tde
- Activity (NCI-H460 [14]): inactive
- Activity (NCI-H446 [15]): Active
- Activity (NCI-H1299 [16]): Active
- Activity (NCI-H1299 [17]): Active
- Activity (NCI-H446 [18]): Active
- Activity (NCI-H446 [19]): Active
- Activity (NCI-H446 [20]): Active
- Activity (NCI-H446 [21]): Active
- Activity [22]: Active
- Activity [23]: Active
- Activity (NCI-H1299 [24]): inactive
- Activity (Homo sapiens [25]): Active
- Activity (Homo sapiens [26]): Active
- Activity [27]: Active
- Activity [28]: Active
- Activity [29]: Active
- Activity [30]: Active
- Activity (Homo sapiens [31]): Active
- Activity (NCI-H446 [32]): Active
- Activity (NCI-H446 [33]): inactive
- Activity (NCI-H446 [34]): inactive
- Activity [35]: inactive
